Where two headings read alike, the source gives them in different places.
Assays:
[1] = test system: Achromobacter sp. strain 4P; type: cell-based
[2] = test system: Pseudomonas sp. strain 3G; type: cell-based; conditions: 24 h
[3] = test system: Pseudomonas sp. strain 4G; type: cell-based
[4] = test system: Stenotrophomonas sp. strain 2L; type: cell-based
[5] = test system: Stenotrophomonas sp. strain 5L; type: cell-based
[6] = test system: Stenotrophomonas sp. strain 6L; type: cell-based
[7] = test system: Arthrobacter sp. strain 1N; type: cell-based
[8] = test system: Brevundimonas sp. strain 2N; type: cell-based
[9] = test system: Stenotrophomonas sp. strain 3N; type: cell-based
[10] = test system: Brevundimonas sp. strain 5N; type: cell-based
[11] = test system: Brevundimonas sp. strain 6N; type: cell-based
[12] = test system: investigated strains of bacteria; type: cell-based
[13] = test system: model strain Escherichia coli; conditions: according to Spain, 2003; cited from earlier work

Sodium arsenite [As (III)]
MIC threshold values of heavy metals [1]: 5(6) mM/L | MIC threshold values of heavy metals [2]: 5 mM/L | MIC threshold values of heavy metals ([3]; 24 h): 5 mM/L | MIC threshold values of heavy metals ([3]; 48 h): 8 mM/L | MIC threshold values of heavy metals [4]: 4(6) mM/L | MIC threshold values of heavy metals [5]: 5(7) mM/L | MIC threshold values of heavy metals [6]: 5(7) mM/L | MIC threshold values of heavy metals [7]: 5(8) mM/L | MIC threshold values of heavy metals [8]: 5(7) mM/L | MIC threshold values of heavy metals [9]: 3(5) mM/L | MIC threshold values of heavy metals [10]: 4(7) mM/L | MIC threshold values of heavy metals [11]: 4(7) mM/L | Susceptibility of the investigated strains to the heavy metal [12]: resistant | MIC [13]: 0.5 mM/L

Reference: US9012200B2, “Composition of bacterial strains, bioremediation mixture and use of this composition for the removal of contaminants from the soil and the method for purifying the soil contaminants” (priority 2012, dated 2015)
